Test results as given in ChEMBL document CHEMBL4308841, “Synthesis, in vitro antiproliferative activity, and kinase inhibitory effects of pyrazole-containing diarylureas and diarylamides” (Eur J Med Chem, 2018).

How the values were obtained:
BT-549 = assay: Growth inhibition of human BT549 cells assessed as cell growth at 10 uM incubated for 48 hrs by sulforhodamine B assay relative to control; assay type: functional; settings: BT-549, 48 h, read-out: Activity
Malme-3M = assay: Growth inhibition of human MALME-3M cells assessed as cell growth at 10 uM incubated for 48 hrs by sulforhodamine B assay relative to control; assay type: functional; settings: read-out: Activity
COLO 205 [1] = assay: Growth inhibition of human COLO205 cells assessed as cell growth at 10 uM incubated for 48 hrs by sulforhodamine B assay relative to control; assay type: functional; settings: COLO 205, 48 h, read-out: Activity
MCF7 = assay: Growth inhibition of human MCF7 cells assessed as cell growth at 0.1 uM incubated for 48 hrs by sulforhodamine B assay relative to control; assay type: functional; settings: MCF7, 48 h, read-out: Activity
OVCAR-5 = assay: Growth inhibition of human OVCAR5 cells incubated for 48 hrs by sulforhodamine B assay; assay type: functional, cell-based; settings: OVCAR-5, 48 h
M14 = assay: Growth inhibition of human M14 cells assessed as cell growth at 10 uM incubated for 48 hrs by sulforhodamine B assay relative to control; assay type: functional; settings: M14, 48 h, read-out: Activity
HCT-116 = assay: Growth inhibition of human HCT116 cells assessed as cell growth at 10 uM incubated for 48 hrs by sulforhodamine B assay relative to control; assay type: functional; settings: HCT-116, 48 h, read-out: Activity
NCI-H322M = assay: Growth inhibition of human NCI-H322M cells assessed as cell growth at 10 uM incubated for 48 hrs by sulforhodamine B assay relative to control; assay type: functional; settings: read-out: Activity
SF-539 [2] = assay: Growth inhibition of human SF539 cells assessed as cell growth at 10 uM incubated for 48 hrs by sulforhodamine B assay relative to control; assay type: functional; settings: SF-539, 48 h, read-out: Activity
CCRF-CEM = assay: Growth inhibition of human CCRF-CEM cells assessed as cell growth at 10 uM incubated for 48 hrs by sulforhodamine B assay relative to control; assay type: functional; settings: read-out: Activity
UACC-257 = assay: Growth inhibition of human UACC257 cells assessed as cell growth at 0.1 uM incubated for 48 hrs by sulforhodamine B assay relative to control; assay type: functional; settings: UACC-257, 48 h, read-out: Activity
LOX IMVI = assay: Growth inhibition of human LOXIMVI cells assessed as cell growth at 10 uM incubated for 48 hrs by sulforhodamine B assay relative to control; assay type: functional; settings: read-out: Activity
NCI-H23 = assay: Growth inhibition of human NCI-H23 cells assessed as cell growth at 10 uM incubated for 48 hrs by sulforhodamine B assay relative to control; assay type: functional; settings: NCI-H23, 48 h, read-out: Activity
MDA-MB-231 [3] = assay: Growth inhibition of human MDA-MB-231 cells assessed as cell growth at 10 uM incubated for 48 hrs by sulforhodamine B assay relative to control; assay type: functional; settings: MDA-MB-231, 48 h, read-out: Activity
MDA-MB-468 = assay: Growth inhibition of human MDA-MB-468 cells assessed as cell growth at 10 uM incubated for 48 hrs by sulforhodamine B assay relative to control; assay type: functional; settings: MDA-MB-468, 48 h, read-out: Activity
OVCAR-3 = assay: Growth inhibition of human OVCAR3 cells assessed as cell growth at 0.1 uM incubated for 48 hrs by sulforhodamine B assay relative to control; assay type: functional; settings: OVCAR-3, 48 h, read-out: Activity
SK-MEL-5 = assay: Growth inhibition of human SK-MEL-5 cells assessed as cell growth at 10 uM incubated for 48 hrs by sulforhodamine B assay relative to control; assay type: functional; settings: SK-MEL-5, 48 h, read-out: Activity
HCT-15 = assay: Growth inhibition of human HCT15 cells assessed as cell growth at 10 uM incubated for 48 hrs by sulforhodamine B assay relative to control; assay type: functional; settings: HCT-15, 48 h, read-out: Activity
SF-539 [4] = assay: Growth inhibition of human SF539 cells incubated for 48 hrs by sulforhodamine B assay; assay type: functional, cell-based; settings: SF-539, 48 h
U-251 = assay: Growth inhibition of human U251 cells assessed as cell growth at 1 uM incubated for 48 hrs by sulforhodamine B assay relative to control; assay type: functional; settings: U-251, 48 h, read-out: Activity
KM12 = assay: Growth inhibition of human KM12 cells assessed as cell growth at 10 uM incubated for 48 hrs by sulforhodamine B assay relative to control; assay type: functional; settings: KM12, 48 h, read-out: Activity
UO-31 = assay: Growth inhibition of human UO31 cells assessed as cell growth at 10 uM incubated for 48 hrs by sulforhodamine B assay relative to control; assay type: functional; settings: UO-31, 48 h, read-out: Activity
MDA-MB-231 [5] = assay: Growth inhibition of human MDA-MB-231 cells incubated for 48 hrs by sulforhodamine B assay; assay type: functional, cell-based; settings: MDA-MB-231, 48 h
NCI-H460 = assay: Growth inhibition of human NCI-H460 cells assessed as cell growth at 10 uM incubated for 48 hrs by sulforhodamine B assay relative to control; assay type: functional; settings: NCI-H460, 48 h, read-out: Activity
PC-3 = assay: Growth inhibition of human PC3 cells assessed as cell growth at 10 uM incubated for 48 hrs by sulforhodamine B assay relative to control; assay type: functional; settings: PC-3, 48 h, read-out: Activity
COLO 205 [6] = assay: Growth inhibition of human COLO205 cells assessed as cell growth at 0.1 uM incubated for 48 hrs by sulforhodamine B assay relative to control; assay type: functional; settings: COLO 205, 48 h, read-out: Activity
K562 = assay: Growth inhibition of human K562 cells assessed as cell growth at 10 uM incubated for 48 hrs by sulforhodamine B assay relative to control; assay type: functional; settings: K562, 48 h, read-out: Activity
A498 = assay: Growth inhibition of human A498 cells assessed as cell growth at 0.1 uM incubated for 48 hrs by sulforhodamine B assay relative to control; assay type: functional; settings: A498, 48 h, read-out: Activity
SK-MEL-28 = assay: Growth inhibition of human SK-MEL-28 cells assessed as cell growth at 10 uM incubated for 48 hrs by sulforhodamine B assay relative to control; assay type: functional; settings: SK-MEL-28, 48 h, read-out: Activity
HOP-62 = assay: Growth inhibition of human HOP62 cells assessed as cell growth at 10 uM incubated for 48 hrs by sulforhodamine B assay relative to control; assay type: functional; settings: HOP-62, 48 h, read-out: Activity
COLO 205 [7] = assay: Growth inhibition of human COLO205 cells assessed as cell growth at 0.01 uM incubated for 48 hrs by sulforhodamine B assay relative to control; assay type: functional; settings: COLO 205, 48 h, read-out: Activity
[8] = read-out: LC50 (the source's name)
[9] = read-out: pLC50 (the source's name) (converted)

COc1cc(Cl)cc(-c2nn(-c3cccc(NC(=O)Nc4ccc(Cl)c(C(F)(F)F)c4)c3)cc2-c2ccncc2)c1
growth at 10 µM (BT-549): 9.81% | growth at 10 µM (Malme-3M): -19.8% | growth at 10 µM (COLO 205 [1]): -48.3% | growth at 0.1 µM (MCF7): 93% | GI50 (OVCAR-5; read-out: GI50): 2.13 µM | CC50 (OVCAR-5; [8]): 3.01 µM | TGI (OVCAR-5; read-out: TGI): 71.5 µM | GI50 (OVCAR-5; read-out: pGI50 (converted)): 2.14 µM | CC50 (OVCAR-5; [9]): 30.2 µM | TGI (OVCAR-5; read-out: pTGI (converted)): 28.8 µM | growth at 10 µM (M14): 3.99% | growth at 10 µM (HCT-116): 3.39% | growth at 10 µM (NCI-H322M): 18.7% | growth at 10 µM (SF-539 [2]): -1.17% | growth at 10 µM (CCRF-CEM): 1.88% | growth at 0.1 µM (UACC-257): 59% | growth at 10 µM (LOX IMVI): 4.81% | growth at 10 µM (NCI-H23): 0.3% | growth at 10 µM (MDA-MB-231 [3]): -30.8% | growth at 10 µM (MDA-MB-468): -14.4% | growth at 0.1 µM (OVCAR-3): 99% | growth at 10 µM (SK-MEL-5): -71.2% | growth at 10 µM (HCT-15): 7.28% | GI50 (SF-539 [4]; read-out: GI50): 1.5 µM | CC50 (SF-539 [4]; [8]): 7.51 µM | TGI (SF-539 [4]; read-out: TGI): 33.5 µM | GI50 (SF-539 [4]; read-out: pGI50 (converted)): 1.51 µM | CC50 (SF-539 [4]; [9]): 7.59 µM | TGI (SF-539 [4]; read-out: pTGI (converted)): 3.39 µM | growth at 1 µM (U-251): 43% | growth at 10 µM (KM12): 9.1% | growth at 10 µM (UO-31): 11.1% | GI50 (MDA-MB-231 [5]; read-out: GI50): 1.44 µM | CC50 (MDA-MB-231 [5]; [8]): 9.52 µM | TGI (MDA-MB-231 [5]; read-out: TGI): 37.4 µM | GI50 (MDA-MB-231 [5]; read-out: pGI50 (converted)): 1.45 µM | CC50 (MDA-MB-231 [5]; [9]): 9.77 µM | TGI (MDA-MB-231 [5]; read-out: pTGI (converted)): 3.72 µM | growth at 10 µM (NCI-H460): 2.76% | growth at 10 µM (PC-3): -13% | growth at 0.1 µM (COLO 205 [6]): 99% | growth at 10 µM (K562): 8.93% | growth at 0.1 µM (A498): 59% | growth at 10 µM (SK-MEL-28): 23.6% | growth at 10 µM (HOP-62): 13.5% | growth at 0.01 µM (COLO 205 [7]): 97%

O=C(Nc1cccc(-n2cc(-c3ccncc3)c(-c3cc(O)cc(Cl)c3)n2)c1)Nc1ccc(Cl)c(Cl)c1
growth at 10 µM (BT-549): 0.54% | growth at 10 µM (Malme-3M): -35.1% | growth at 10 µM (COLO 205 [1]): 22.4% | growth at 0.1 µM (MCF7): 97% | GI50 (OVCAR-5; read-out: GI50): 2.14 µM | CC50 (OVCAR-5; [8]): 5.42 µM | TGI (OVCAR-5; read-out: TGI): 51.6 µM | GI50 (OVCAR-5; read-out: pGI50 (converted)): 2.14 µM | CC50 (OVCAR-5; [9]): 53.7 µM | TGI (OVCAR-5; read-out: pTGI (converted)): 6.17 µM | growth at 10 µM (M14): -69.2% | growth at 10 µM (HCT-116): -57.3% | growth at 10 µM (NCI-H322M): 19.5% | growth at 10 µM (SF-539 [2]): -29% | growth at 10 µM (CCRF-CEM): 4.11% | growth at 0.1 µM (UACC-257): 91% | growth at 10 µM (LOX IMVI): -84.7% | growth at 10 µM (NCI-H23): -20.4% | growth at 10 µM (MDA-MB-231 [3]): -38.1% | growth at 10 µM (MDA-MB-468): -1.88% | growth at 0.1 µM (OVCAR-3): 101% | growth at 10 µM (SK-MEL-5): -53% | growth at 10 µM (HCT-15): -25.3% | GI50 (SF-539 [4]; read-out: GI50): 1.44 µM | CC50 (SF-539 [4]; [8]): 7.4 µM | TGI (SF-539 [4]; read-out: TGI): 32.7 µM | GI50 (SF-539 [4]; read-out: pGI50 (converted)): 1.45 µM | CC50 (SF-539 [4]; [9]): 7.41 µM | TGI (SF-539 [4]; read-out: pTGI (converted)): 3.24 µM | growth at 1 µM (U-251): 74% | growth at 10 µM (KM12): 2.26% | growth at 10 µM (UO-31): -41.2% | GI50 (MDA-MB-231 [5]; read-out: GI50): 1.01 µM | CC50 (MDA-MB-231 [5]; [8]): > 100 µM | TGI (MDA-MB-231 [5]; read-out: TGI): 77 µM | GI50 (MDA-MB-231 [5]; read-out: pGI50 (converted)): 1 µM | CC50 (MDA-MB-231 [5]; [9]): > 100 µM | TGI (MDA-MB-231 [5]; read-out: pTGI (converted)): 7.76 µM | growth at 10 µM (NCI-H460): 0.21% | growth at 10 µM (PC-3): -1.66% | growth at 0.1 µM (COLO 205 [6]): 103% | growth at 10 µM (K562): 1.06% | growth at 0.1 µM (A498): 94% | growth at 10 µM (SK-MEL-28): -50.9% | growth at 10 µM (HOP-62): -44.2% | growth at 0.01 µM (COLO 205 [7]): 106%
